Laboratory results from patent US10704076B2, “Multi-tiered high through-put screen for compounds effective against bacterial biofilm and compounds effective for inhibiting and eradicating bacterial biofilm” (University of Cincinnati, priority 2013, dated 2020).

Columns and labels:
S. epidermidis biofilm [1] = assay: CLSM, co-culture of bacteria with compound (inhibition of biofilm formation); format: cell-based, Staphylococcus epidermidis; conditions: for killing of residential bacteria, co-culture (CLSM, in words): 10 μM; for Co-culture of bacteria with compound: Killing: CLSM, 10 μM compound, 18 hrs, Y / —
Experimental: Broad spectrum agents (effective against all three bacterial species) and single agent compounds identified as HTS hits were investigated with CLSM confirmation of inhibition of biofilm formation (culture of bacteria with compounds) or killing of bacteria residing within an established biofilm (compound addition after culturing biofilm). To evaluate inhibition of P. aeruginosa biofilms, bacteria were sub-cultured into 10% L-broth and grown at 37° C. until the OD600 reached 0.25. The bacteria were further diluted 1:100 into a modified 0.5×M63 minimum media (50 mM KH2PO4, 7.5 mM (NH4)2SO4, 9 μM FeSO4, 0.5% casamino acids, 0.2% glucose, and 1 mM MgSO4). A. baumannii biofilms were also grown in 10% L-broth until the OD600 reached 0.05 but diluted 1:10 into 5% L-broth media. S. epidermidis biofilm cultures were grown. Briefly, the bacteria were grown in TSB until the OD600 reached 0.75, and a 1:100 dilution of the bacteria was sub-cultured into phosphate buffered saline (PBS). All of the biofilm bacterial cultures were grown in 96-well plate chambers (MatTek Corp., Ashland, Mass.) in the presence of 10 μM of each compound or DMSO as a control and incubated for 18 hrs at 37° C. To investigate the ability of compounds to kill bacteria within pre-existing biofilms, biofilms were grown under the same conditions, but without test compound. These biofilms were washed once with PBS and incubated an additional 24 hr at 37° C. in PBS containing 300 μM of each compound. All biofilm cultures were then washed twice with 100 μL of PBS and stained using the LIVE/DEAD® BacLight™ Bacterial Viability Kit (Invitrogen). Finally, biofilm images were obtained using a Zeiss LSM510 META Confocal Microscope (Carl Zeiss, Inc., Germany). A 488 nm laser was used in conjunction with a Plan-Apochromat 100×/1.4 Oil DIC objective. Z-stacks were 8 bit and measured 127.3 μm×127.3 μm×16.0 μm in size. The filters used were 505-530 and 620-680 IR, as the excitation and emission wavelengths for red fluorescence are 490 nm and 635 nm, respectively, and 480 nm and 500 nm for green fluorescence. Three dimensional images were generated using the “Projection” ability on LSM Image Browser software (v.1.4.0.121) or Zeiss LSM image browser software version 3.5 (Carl Zeiss, Inc., Germany), and Live/Dead calculations were conducted based upon these images using MacBiophotonics ImageJ following the guidelines in the cell counting guide by C. Labno {Rasband, 1997-2011 #25; Labno, #2} at the University of Chicago Integrated Light Microscopy Core. The thickness of the biofilm was calculated using Comstat software. A hit was defined as a >50% dead to live ratio.
The CLSM experiment was performed in one or two or all bacteria used in this study depending on its activity. For the validation of HTS hits, 10 μM of compound was added to each bacterial suspension and the resulting biofilm stained with LIVE/DEAD® BacLight™ Bacterial Viability Kit. The images were analyzed to determine the live and dead ratios of biofilm bacteria, the thickness of biofilms, and structural attributes of biofilms.

S. epidermidis biofilm [2] = assay: HTS total biofilm formation assay (crystal violet staining); format: cell-based; conditions: Staphylococcus epidermidis, dose-response
Source text: Each HTS tier consisted of: (i) primary screening, (ii) confirmation screening and (iii) dose-response curve screening. Each tier of HTS included three distinct biological process assays. The first assay was an optical density measurement of bacteria growth in the presence of each compound reported as a total bacteria growth. In the second assay, resazurin solution was used as an indicator of metabolic activity to measure the live bacteria in the biofilms, reported as live biofilm. The final assay was crystal violet staining, which indicated the amount of biofilm formation and the effect of each compound on this process, reported as total biofilm formation.
Briefly, stationary phase bacteria grown in L-broth were diluted 1:200 into fresh L-broth and 50 μM of each test compound. After 20-24 hours, the optical density (OD560) of each suspension was measured using Zeiss Plate::Vision with a 560 BP filter (560 nm, 2.5% light intensity, 1 mm focus to bottom of plate, and exposure time of 100 ms). To measure bacterial viability in the biofilm, 50 μl of a 5 mg/ml resazurin solution in L-broth was added to each well after washing 3 times with 50 μl of PBS. The plates were then incubated at 37° C. for 30 or 180 min for A. baumannii and P. aeruginosa biofilms, respectively. Fluorescence was measured using Zeiss Plate::Vision at excitation and emission wavelengths of 535 and 580 nm, 100 ms exposure time, 2.5% intensity and a 2 mm focus to the bottom of the biofilms. To assess biofilm formation, plates were washed 3 times with PBS and then 50 μl of 0.01% of crystal violet was added to each well to assess bacterial biofilm formation as described in a similar borosilicate tube assay by O'Toole and Kolter. After incubation at room temperature for 30 min and removal of the crystal violet solution by washing with PBS, 95% ethanol was added to solubilize the crystal violet followed by incubation for 20 min at room temperature. Finally, the optical density of each plate was determined using measured by Zeiss Plate::Vision using the same settings used to measure total bacterial growth. These 3 steps were used in each of the three tiers for the HTS process: (i) single point primary screening at 10 μM, (ii) triplicate confirmation of hits from (i) at 10 μM and (iii) determination of AC50 values in 10 point dose-response at a concentration range of 0.1-50 μM) in hits from (ii). The AC50 represents the concentration of compound that inhibits 50% of bacterial growth, bacterial viability, or biofilm formation. Genedata Screener® Assay Analyzer Software (Ver. 9.0.0 Standard) was used to analyze data from all assay tiers. Compounds with an AC50 of less than 20 μM in one of the biological assays from the dose response screen were subject to additional investigation.

SMILES	killing of residential bacteria, co-culture (CLSM, in words) (S. epidermidis biofilm [1])	Co-culture of bacteria with compound: Killing (S. epidermidis biofilm [1])	AC50 (S. epidermidis biofilm [2]) [nM]
O=C(O)c1cn(C2CC2)c2c(F)c(-c3ccncc3)c(F)cc2c1=O [Compound 11, 7-(4-pyridyl)-1-cyclopropyl-6,8-difluoro-4-oxoquinoline-3-carboxylic acid]	killed	Y (A hit was defined as a >50% dead to live ratio)	< 100
Cn1sc(Cl)c(C#N)c1=O [Compound 3, 5-chloro-2-methyl-3-oxo-1,2-thiazole-4-carbonitrile]	killed residential bacteria	Y (A hit was defined as a >50% dead to live ratio)	8840
O=C(O)c1cn(C2CC2)c2c(F)c(N3CC(O)C3)c(F)cc2c1=O [Compound 8, 1-cyclopropyl-6,8-difluoro-7-(3-hydroxyazetidin-1-yl)-4-oxoquinoline-3-carboxylic acid]	killed residential bacteria	Y (A hit was defined as a >50% dead to live ratio)	< 100
NC(=S)N1CCN(c2cc3c(cc2F)c(=O)c(C(=O)O)cn3C2CC2)CC1 [Compound 7, 7-(4-carbamothioylpiperazin-1-yl)-1-cyclopropyl-6-fluoro-4-oxoquinoline-3-carboxylic acid]	killed residential bacteria	Y (A hit was defined as a >50% dead to live ratio)	1120
